# Assay results published in patent publication US20160295854A1, “COMPOSITION AND METHOD FOR EX-VIVO IMMUNOMODULATION AND/OR PRESERVATION OF ORGANS, METHODS AND USE” (UNIAO BRASILEIRA DE EDUCACAO E ASSISTENCIA , MANTENEDORA DA …, priority 2014, published 2016).
# Tests used:
# [1] = test system: cutaneous allograft (B6 donor skin in BALB/c recipients); test: Cutaneous allograft model, graft immersion followed by topic application; format: in vivo, mice (Mus musculus)
# Excerpt: That is, animals that received grafts treated with Hsp70 receive the local application of a Hsp70 solution and the same for OVA.
# After this, the grafts were sutured in BALB/c (I-A^d) animals' back. […] The animals were daily monitored. (A) Schematic representation of the treatment strategy used in the experiment. (B) Photographic record of the clinical progression of the acute rejection in groups Hsp70 and OVA. […] Data achieved from previous experiments.
# [2] = test system: MHC II; test: MHC II (I-A^b) expression in DCs isolated from skin draining lymph nodes; format: cell-based, mice (Mus musculus)
# Protocol: CD11c+ cells were purified from lymph nodes that drain mice skin antigens C57Bl/6 WT or TLR2 KO, and 129Sv/Ev WT or IL-10 KO. The animals were sacrificed and the axial, brachial and inguinal lymph nodes were removed. These organs were macerated in a nylon screen with a mean that has D Collagenase (Roche). The cell suspension achieved was marked with the magnetic beads conjugated with an anti-CD11c antibody (N418) (Miltenyi Biotech) for 15 min. After being washed, the CD11c+ cells were purified by positive selecting using the MACS MS (Miltenyi Biotech) separation columns, according to the manufacturer instructions. The cells purity purified was controlled by flow cytometry, indicating a purity of 90% CD11c+ cells in the positive fraction. Therefore, the cells were grown in 96-well plates in serum free mean AIM-V® (Gibco).
# The supernatants were collected and used for analyzing cytokine. The cells were further treated with 20 ng/ml of Rapamycin (Cell Signaling), 1 μg/ml of Cyclosporine A (Roche) or 20 ng/ml of IL-10 recombinant murine (R&D System) for 24 h and the total RNA was removed.
# For analyzing the migration and activation of the DCs subtypes, the cells were marked for I-A^b (AF6-120.1), CD11c (HL3), CD11b (M1/70), CD45R/B220 (RA3-6B2), CD103 (M290), CCR7 (CD197-4B12), CD80 (16-10A1), CD86 (GL1) antibodies achieved from BD Biosciences; and Langerin (CD207—eBioRMUL.2) from eBioscience.
# After this period, the expression of I-A^b in the DCs was analyzed by flow cytometry.
# (A) Analysis strategy for DCs subtypes present in the mice recipients DNL. […] After this period, the expression of I-A^b was analyzed in the DCs CD103+. Graphs expressed on average ±SEM. **, p<0.01; ***, […]. n=3 mice per group. Representative results of 3 independent experiments.
# After that, IL-10 mRNA levels were analyzed by Real-time PCR. The β-actin was used as a setter. The IL-10 concentration was measured in the cultures supernatant by flow cytometry. […] (C) As in A, however the MARCH-I mRNA levels were analyzed by Real-time PCR. […] DCs IL-10 KO were also treated with Recombinant IL-10. All treatments were performed for 24 h and MARCH-I mRNA levels were analyzed by Real-time PCR. […] After this period, grafts were sutured in the BALB/c animals' back and the acceptance was daily monitored. Graphs expressed on average ±SEM. *, p<0.05; **, p<0.01; ***, […]. n=3-5 mice per group. Representative results of 3 independent experiments.
# The β-actin was used as setter. […] (C) Representative graphs and percentages of the CD11c+ I-Ab^hi, CD11c+I-Ab^int and CD11c+I-Ab^low cells of DCs isolated from LNs draining skin antigens of WT animals or TLR2 KO. […] After this period, the treated grafts were sutured in the BALB/c animals' back and the acceptance was daily monitored. […]
# [3] = test system: CD4+ and CD8+ T cells in recipient DLN; test: Recipient responses in DLN (cell count, Ki67 proliferation, Tregs); format: in vivo, mice (Mus musculus)
# Protocol: Cells of the donor mice (I-A^b+ or GFP+) were detected in the axillary lymph nodes of the recipients, 24 h or 96 h after the transplantation by flow cytometry. The transplanted mice were sacrificed, the axillary lymph nodes were removed and macerated in a nylon screen with a mean that had D Collagenase (Roche®). We achieved a cell suspension that had the cells in contact with Tripan blue and analyzed by flow cytometry.
# For analyzing the recipients T cells, the cells were marked for CD4 (GK1.5), CD8a (53-6.7), Foxp3 (MF23), Ki67 (B56) achieved from BD Biosciences. The specific transcription factor marking of Tregs Foxp3 was performed using the kit Mouse Foxp3 Buffer Set (BD Biosciences), according to the manufacturer instructions. The levels of phosphorylated ERK and STAT3 were determined using antibodies for p-ERK1/2 and p-STAT3 (BD Biosciences) in BMDCs previously fixed and permeablized. The cells were subsequently analyzed in the flow cytometer FACSCanto II (BD Biosciences) with the BD FACSDiva (BD Biosciences) program. The data achieved were analyzed with the Flowjo program (version 7.6.5, Tree Star).
# When analyzed the median responses in the Recipients' DLNs, it was noted, for inventors surprise, which animals that received grafts treated with OVA presented organs in a greater size when compared with animals that received grafts treated with Hsp70.
# For analyzing this hypothesis, the proliferation of these cells was analyzed by marking with Ki67 in the transplanted animals DLN. Ki67 is a molecule having a role in the cellular cycle and is expressed by any organism cell that is proliferating. […] An increase in the number of regulating T cells (Tregs) may reduce the alloreactive T cells proliferation in the recipient DLN, delaying the rejection to grafts. […] These findings are in accordance with the observation that immature DCs administration in human leads to an inhibition of the CD8+ T cells effector functions.
# FIG. 7. […]
# [4] = test system: recipient DCs; test: Indirect alloantigen presentation by recipient DCs (Y-Ae antibody); format: in vivo, mice (Mus musculus); conditions: BALB/c grafts in B6 recipients; vs OVA
# Protocol: Subsequently, the alloantigens presentation was analyzed by the recipient DCs using the antibody Y-Ae. This antibody recognizes a peptide (Eα52-68) expressed in BALB/c animals bound in the MHC II I-A^b molecule (expressed in the B6 animals).
substance,measurement,setting,value
"Hsp70: recombinant Mycobacterium tuberculosis Hsp70 (DnaK) produced in Escherichia coli BL21, LPS removed","graft survival, immersion plus topic application until day 7 (FIG. 18)",[1]; compared to animals treated with OVA,much bigger
same,Survival median,[1]; group '- 1 day',17.0 days
same,MHC II expression in DCs isolated from skin draining lymph nodes (FIG. 3),"[2]; 24 h, vs OVA",increase in the number of DCs expressing intermediate or low levels of MHC II
same,MHC II expression inhibition in DCs TLR2 KO (FIG. 12 C),[2]; DCs isolated from LNs of WT or TLR2 KO,dependent on TLR2
same,reduction of MHC II expression in IL-10 KO DCs (FIG. 11 B),[2]; DCs of knockout animals for IL-10,not possible to note this phenomenon
same,MHC II expression in DCs CD103+ isolated from the lymph nodes (FIG. 9 C),"[2]; in vitro, 30 μg/ml, 24 h",reduce in vitro the MHC II expression
same,total of cells of the Recipients' DLNs (FIG. 7 A),"[3]; days 1, 4, 7 and 10 after transplantation, vs OVA",lower absolute number of cells
same,"CD4+ and CD8+ T cells proliferation (Ki67) in recipient DLN (FIG. 7 B, C)",[3]; graft treated by immersion,reduction marked
same,Tregs in the recipient DLN (FIG. 7 D),[3]; graft treated by immersion,not detected a significant increase
same,"antigens presentation levels by recipient DCs, Y-Ae (FIG. 6 D)",[4],no difference
